{"source": "patent US9827219B2", "about": "“Compositions and methods for lowering levels of high-sensitivity C-reactive protein (HS-CRP) in a subject” (priority 2012, dated 2017)", "key": {"[1]": {"system": "hsCRP", "experiment": "MARINE study, hsCRP (also by concomitant statin use)", "type": "in vivo, human", "source_text": "(§1) Parameters (a)-(y) can be measured in accordance with any clinically acceptable methodology. For example, triglycerides, total cholesterol, HDL-C and fasting blood sugar can be sample from serum and analyzed using standard photometry techniques. VLDL-TG, LDL-C and VLDL-C can be calculated or determined using serum lipoprotein fractionation by preparative ultracentrifugation and subsequent quantitative analysis by refractometry or by analytic ultracentrifugal methodology. Apo A1, Apo B and hsCRP can be determined from serum using standard nephelometry techniques. Lipoprotein (a) can be determined from serum using standard turbidimetric immunoassay techniques. LDL particle number and particle size can be determined using nuclear magnetic resonance (NMR) spectrometry. Remnants lipoproteins and LDL-phospholipase A2 can be determined from EDTA plasma or serum and serum, respectively, using enzymatic immunoseparation techniques. Oxidized LDL, intercellular adhesion molecule-1 and interleukin-2 levels can be determined from serum using standard enzyme immunoassay techniques. These techniques are described in detail in standard textbooks, for example Tietz Fundamentals of Clinical Chemistry, 6th Ed. (Burtis, Ashwood and Borter Eds.), WB Saunders Company.\nA multi-center, placebo-controlled randomized, double-blind, 12-week study with an open-label extension was performed to evaluate the efficacy and safety of AMR101 in patients with fasting triglyceride levels ≧500 mg/dL. The primary objective of the study was to determine the efficacy of AMR101 2 g daily and 4 g daily, compared to placebo, in lowering fasting TG levels in patients with fasting TG levels ≧500 mg/dL and ≦1500 mg/dL (≧5.65 mmol/L and ≦16.94 mmol/L).\nThe population for this study was men and women (women of childbearing potential will need to be on contraception or practice abstinence)>18 years of age with a body mass index ≦45 kg/m^2 who were not on lipid-altering therapy or were currently on lipid-altering therapy. Patients currently on statin therapy (with or without ezetimibe) were evaluated by the investigator as to whether this therapy can be safely discontinued at screening, or if it should be continued. If statin therapy (with or without ezetimibe) was to be continued, dose(s) must have been stable for ≧4 weeks prior to randomization. Patients taking non-statin, lipid-altering medications (niacin >200 mg/day, fibrates, fish oil, other products containing omega-3 fatty acids, or other herbal products or dietary supplements with potential lipid-altering effects), either alone or in combination with statin therapy (with or without ezetimibe), must have been able to safely discontinue non-statin, lipid-altering therapy at screening.\nApproximately 240 patients were randomized at approximately 50 centers in North America, South America, Central America, Europe, India, and South Africa. The study was a 58- to 60-week, Phase 3, multi-center study consisting of 3 study periods: (1) A 6- to 8-week screening period that included a diet and lifestyle stabilization and washout period and a TG qualifying period; (2) A 12-week, double-blind, randomized, placebo-controlled treatment period; and (3) A 40-week, open-label, extension period.\nAfter confirmation of qualifying fasting TG values, eligible patients entered a 12-week, randomized, double-blind treatment period. At Visit 4 (Week 0), patients were randomly assigned to 1 of the following treatment groups: • AMR101 2 g daily, • AMR101 4 g daily, or • Placebo.\nEligible patients were randomly assigned at Visit 4 (Week 0) to receive orally AMR101 2 g daily, AMR101 4 g daily, or placebo for the 12-week double-blind treatment period. AMR101 was provided in 1 g liquid-filled, oblong, gelatin capsules. The matching placebo capsule was filled with light liquid paraffin and contained 0 g of AMR101. […]"}, "[2]": {"system": "Apo B", "experiment": "Apo B in patients with diabetes mellitus-2 (Example 2)", "type": "in vivo, human", "conditions": "4 g/day, 12 weeks, on statin", "source_text": "as §1, with “(Burtis, Ashwood and Borter Eds.), WB Saunders Company.” left out\nThe effect of >96% E-EPA on lipid and inflammatory parameters was evaluated in patients with fasting triglyceride levels ≧150 mg/dl and <499 mg/dl on concomitant statin therapy. […]"}}, "data": [{"compound": "CC/C=C\\C/C=C\\C/C=C\\C/C=C\\C/C=C\\CCCC(=O)OCC", "note": "[AMR101, all-cis eicosa-5,8,11,14,17-pentaenoic acid ethyl ester]", "values": [{"measurement": "hsCRP end-of-treatment value, median", "setting": "[1]; MARINE ITT, 2 g/day, week 12", "result": 2.4, "unit": "mg/L"}, {"measurement": "hsCRP change from baseline (median)", "setting": "[1]; MARINE ITT, 4 g/day, week 12", "result": "−2.5", "unit": "%"}, {"measurement": "hsCRP end-of-treatment value, median", "setting": "[1]; MARINE ITT, 4 g/day, week 12", "result": 2.2, "unit": "mg/L"}, {"measurement": "hsCRP median placebo-adjusted % change from baseline", "setting": "[1]; MARINE, no statin, AMR101 2 g/day vs placebo, P 0.8297", "result": "−2.7", "unit": "%"}, {"measurement": "hsCRP change from baseline, median %", "setting": "[1]; MARINE, no statin, AMR101 2 g/day, week 12", "result": 31.7, "unit": "%"}, {"measurement": "hsCRP end-of-treatment value, median", "setting": "[1]; MARINE, no statin, AMR101 2 g/day, week 12, baseline 2.2", "result": 2.5, "unit": "mg/L"}, {"measurement": "hsCRP median placebo-adjusted % change from baseline", "setting": "[1]; MARINE, no statin, AMR101 4 g/day vs placebo, P 0.0311", "result": "−27.4", "unit": "%"}, {"measurement": "hsCRP change from baseline, median %", "setting": "[1]; MARINE, no statin, AMR101 4 g/day, week 12", "result": 0.0, "unit": "%"}, {"measurement": "hsCRP end-of-treatment value, median", "setting": "[1]; MARINE, no statin, AMR101 4 g/day, week 12, baseline 2.2", "result": 2.2, "unit": "mg/L"}, {"measurement": "hsCRP median placebo-adjusted % change from baseline", "setting": "[1]; MARINE, statin, AMR101 2 g/day vs placebo, P 0.1707", "result": "−33.2", "unit": "%"}, {"measurement": "hsCRP change from baseline, median %", "setting": "[1]; MARINE, statin, AMR101 2 g/day, week 12", "result": 11.7, "unit": "%"}, {"measurement": "hsCRP end-of-treatment value, median", "setting": "[1]; MARINE, statin, AMR101 2 g/day, week 12, baseline 1.5", "result": 1.6, "unit": "mg/L"}, {"measurement": "hsCRP median placebo-adjusted % change from baseline", "setting": "[1]; MARINE, statin, AMR101 4 g/day vs placebo, P 0.0098", "result": "−67.9", "unit": "%"}, {"measurement": "hsCRP change from baseline, median %", "setting": "[1]; MARINE, statin, AMR101 4 g/day, week 12", "result": "−30.6", "unit": "%"}, {"measurement": "hsCRP end-of-treatment value, median", "setting": "[1]; MARINE, statin, AMR101 4 g/day, week 12, baseline 1.9", "result": 1.3, "unit": "mg/L"}, {"measurement": "hsCRP median placebo-adjusted change from baseline", "setting": "[1]; MARINE, 2 g/day, with concomitant statin therapy", "result": "statistically insignificant"}, {"measurement": "hsCRP median placebo-adjusted change from baseline", "setting": "[1]; MARINE, 2 g/day, without concomitant statin therapy", "result": "statistically insignificant"}, {"measurement": "hsCRP median placebo-adjusted change from baseline", "setting": "[1]; MARINE, 4 g/day, with concomitant statin therapy", "result": "−67.9", "unit": "%"}, {"measurement": "hsCRP median placebo-adjusted change from baseline", "setting": "[1]; MARINE, 4 g/day, without concomitant statin therapy", "result": "−27.4", "unit": "%"}, {"measurement": "Median placebo-adjusted percent change in Apo B from baseline to study end", "setting": "[2]; total diabetes", "result": "−9.5", "unit": "%"}, {"measurement": "Median placebo-adjusted percent change in Apo B from baseline to study end", "setting": "[2]; well-controlled diabetes (HbA1c < median of 6.8%)", "result": "−6.1", "unit": "%"}]}]}
